Assay results as given in patent publication US20260263613A1, “USE OF DRUG C[…]-CD20 ANTIBODY-DRUG CONJUGATE IN PREPARATION OF DRUG FOR TREATING NHL” (priority 2023, published 2026).
Several values for one entry are separate records, joined by “and”; a condition that tells them apart may be missing. Equal values may be shown once.

Key:
[1] = tested on: human lymphoma WSU-DLCL2 cell xenograft tumor; experiment: Inhibition of human lymphoma WSU-DLCL2 cell xenograft tumor growth; type: in vivo, SCID mouse
Method: Example 3: Inhibition of Human Lymphoma WSU-DLCL2 Cell Xenograft Tumor Growth by TRS005 Alone and TRS005 in Combination with CHP Compared to R-CHOP Regimen Administration Drug Information, Model Establishment, Grouping, and Administration
The TRS005 finished product is provided by Zhejiang Teruisi Pharmaceutical Inc., and other positive drugs are commercially available. Among them, MabThera, Cyclophosphamide, Doxorubicin, Vincristine, and Prednisone are prepared with normal saline as the solvent to corresponding concentrations and stored at 4° C. away from light. The TRS005 finished product is reconstituted with sterile water for injection (WFI), and a corresponding volume of normal saline is added to prepare the corresponding concentration. The TRS005 finished product is reconstituted and packaged with WFI and stored at −70° C.
(§1) Under sterile conditions, each SCID mouse was inoculated with 0.1 mL of WSU-DLCL2 cell suspension at a concentration of 4×10^7/mL subcutaneously on the right back. When the mean tumor volume (TV) reached ~150 mm^3, animals were randomized into 4 groups according to their TV: Group 1 (Vehicle), Group 2 (R-CHOP), Group 3 (TRS005) and Group 4 (TRS005-CHP (T-CHP)), with 6 mice in each group, so that the difference in TV of mice in each group was <10% of the mean. The day of grouping was recorded as Day 0, and the administration was started according to animal body weight (BW).
(§2) The BW and TV of animals were measured twice a week during the study. During the study, the clinical symptoms of animals were observed and recorded once a day. Clinical observations included general health status, abnormal BW and behavior of animals, and other treatment-related adverse reactions.
(§3) The tumor growth inhibition rate (% TGI) is calculated as follows: (1−TVT/TVC)×100%, where TVC is the mean TV of the negative control group, and TVT is the mean TV of the treatment group.
(§4) Relative Tumor Volume (RTV) is calculated as Vt/V0, where V0 is the TV at grouping and Vt is the TV at each measurement.
(§5) The calculation formula for relative tumor proliferation rate (% T/CRTV) is: • TRTV/CRTV×100%, where TRTV is the RTV of the treatment group and CRTV is the RTV of the negative control group.
(§6) According to the Technical Guidelines for Nonclinical Study of Cytotoxic Anti-tumor Drugs (November 2006) issued by NMPA in China, it is considered effective if % T/CRTV≤40% and P<0.05 after statistical analysis. Drug doses are considered to be severely toxic when the number of animal deaths related to the drug exceeds 20%.

[2] = Body weight and drug-related deaths of WSU-DLCL2 tumor-bearing animals; type: in vivo, SCID mouse
Method: as §1, §2
(§7) The animal body weight change (% BWC) is calculated as follows: (BWt−BW0)/BW0×100%, where BWt is the animal BW at each measurement and BW0 is the animal BW at grouping.
as §6

[3] = tested on: human lymphoma OCI-LY19 cell xenograft tumors; experiment: Growth inhibition of human lymphoma OCI-LY19 cell xenograft tumors; type: in vivo, mouse
Method: Embodiment 4: Growth Inhibition of Human Lymphoma OCI-LY19 Cell Xenograft Tumors by TRS005 Alone and TRS005 in Combination with CHP Compared to R-CHOP Regimen Administration
(§8) The drug information is the same as in Embodiment 3. Under sterile conditions, each mouse was inoculated with 0.1 mL of OCI-LY19 cell suspension at a concentration of 2×10^6/mL subcutaneously on the right back. When the mean TV reached ~150 mm^3, animals were randomized into 4 groups according to their TV: Group 1 (Vehicle), Group 2 (R-CHOP), Group 3 (TRS005) and Group 4 (T-CHP), with 10 mice in each group, so that the difference in TV of mice in each group was <10% of the mean. The day of grouping was recorded as Day 0, and the administration was started according to animal BW.
(§9) The BW and TV of animals were measured twice a week during the study. During the study, the clinical symptoms of animals were observed and recorded once a day. Clinical observations included general health status, abnormal BW and behavior of animals, and other treatment-related adverse reactions. During the study, if an individual experimental animal meets any of the following conditions, the animal will be removed from the study group and euthanized. 1. The body weight loss (BWL) of animals was ≥20% compared with Day 0; 2. Animals had serious adverse reactions, such as blindness and paralysis; 3. TV was >2000 mm^3; 4. Open ulcers were formed on the tumor surface.
The calculation formula for TV is: ½×a×b^2, where a and b are the measured length and width of the tumor, respectively.
as §3, §4, §5

[4] = Body weight and drug-related deaths of OCI-LY19 tumor-bearing animals; type: in vivo, mouse
Method: as §8, §9, §7

## TRS005: anti-CD20 ADC; mAb is Rituximab or a biosimilar thereof, drug antibody ratio (DAR) 4.2±0.5
[1]; WSU-DLCL2 xenograft (high CD20 expression), compared with the other regimens
  Anti-tumor efficacy in words: better efficacy than the R-CHOP regimen
[1]; WSU-DLCL2 xenograft, Day 0 (at grouping, before dosing), 6 mice/group
  Tumor Volume (Mean ± SEM) Day 0: 127.16 mm^3
[1]; WSU-DLCL2 xenograft, Day 35
  % T/CRTV Day 35: 17.81%
[1]; WSU-DLCL2 xenograft, Day 35, Vt/V0
  RTV Day 35: 2.44
[1]; WSU-DLCL2 xenograft, Day 35, TRS005 0.75 mg/kg IV BIW × 3 w, regimens per Table 2, 0.75 mg/kg
  Tumor Volume (Mean ± SEM) Day 35: 315.93±94.23 mm^3 and 315.93 mm^3
[1]; WSU-DLCL2 xenograft, Day 35, regimens per Table 2
  % TGI Day 35: 81.94%
[2]; Day 0 (baseline)
  Body Weight of Mice (Mean ± SEM) Day 0: 20.12 ± 0.35 g
[2]; Day 35
  Body Weight of Mice (Mean ± SEM) Day 35: 20.78 ± 0.50 g
[2]; WSU-DLCL2 tumor-bearing mice
  % BWC Day 35 vs Day 0: 3.25%
  Body weight change Day 35 vs Day 0: 0.66 g
[2]; WSU-DLCL2 tumor-bearing mice, during the study
  Safety / drug-related toxicity in words: good safety
[2]; deaths/number of mice
  Number of Mice with Drug-related Deaths Day 35: 0/6
[3]; Day 0 (at grouping, before dosing), 10 mice/group
  Tumor Volume (Mean ± SEM) Day 0: 107.78 mm^3
[3]; Day 14
  % T/CRTV Day 14: 48.28%
  % TGI Day 14: 51.87%
[3]; Day 14, TRS005 1.5 mg/kg IV BIW × 3 w, regimens per Table 5, 1.5 mg/kg
  Tumor Volume (Mean ± SEM) Day 14: 905.30±129.66 mm^3 and 905.30 mm^3
[3]; Day 14, Vt/V0
  RTV Day 14: 8.29
[3]; Day 17
  Tumor Volume (Mean ± SEM) Day 17: 1182.02 mm^3
[3]; Day 21, remaining mice (Group 3 N = 9)
  Tumor Volume (Mean ± SEM) Day 21: 1764.32 mm^3
[3]; Day 24, remaining mice (Group 3 N = 6)
  Tumor Volume (Mean ± SEM) Day 24: 2274.64 mm^3
[3]; Day 28, remaining mice (Group 2 N = 3, Group 3 N = 1, Group 4 N = 9)
  Tumor Volume (Mean ± SEM) Day 28: 0.00 mm^3
[4]; Day 0 (baseline)
  Body Weight of Mice (Mean ± SEM) Day 0: 20.95 ± 0.36 g
[4]; Day 14
  Body Weight of Mice (Mean ± SEM) Day 14: 22.76 ± 0.45 g
[4]; OCI-LY19 tumor-bearing mice
  % BWC Day 14 vs Day 0: 8.96%
  Body weight change Day 14 vs Day 0 (in g): (1.81 g)
[4]; OCI-LY19 tumor-bearing mice, during the study
  Safety / drug-related toxicity in words: good safety
[4]; deaths/number of mice
  Number of Mice with Drug-related Deaths Day 14: 0/10
